Source: US11547702B2, “Use of amlexanox” (SHANGHAI MICROPORT MEDICAL (GROUP) CO., LTD., priority 2016, dated 2023)

Assays:
[1] = tested on: Human Aortic Endothelial Cells (HAECs); test: In vitro cell proliferation test (MTT colorimetry), endothelial cells; conditions: 72 hours, based on the control group, average of 6 tests
[2] = tested on: Human Aortic Smooth Muscle Cells (HASMCs); test: In vitro cell proliferation test (MTT colorimetry), smooth muscle cells; conditions: 72 hours, based on the control group, average of 6 tests
[3] = 1 μmol of each drug in culture medium
[4] = 6 μmol of each drug in culture medium
[5] = 10 μmol of each drug in culture medium

SMILES	Endothelial cell inhibition rate (%) [1, 3] [%]	Endothelial cell inhibition rate (%) [1, 4] [%]	Endothelial cell inhibition rate (%) [1, 5] [%]	Smooth muscle cell inhibition rate (%) [2, 3] [%]	Smooth muscle cell inhibition rate (%) [2, 4] [%]	Smooth muscle cell inhibition rate (%) [2, 5] [%]
CC(C)c1ccc2oc3nc(N)c(C(=O)O)cc3c(=O)c2c1 [Amlexanox, 2-amimo-7-isopropyl-5-oxo-5H-[1]benzopyrano-[2,3,-b]pyridine-3-carboxylic acid]	0.9	2.8	3.5	11.6	19.0	23.4
CO[C@H]1C[C@@H]2CC[C@@H](C)[C@@](O)(O2)C(=O)C(=O)N2CCCC[C@H]2C(=O)O[C@H]([C@H](C)C[C@@H]2CC[C@@H](O)[C@H](OC)C2)CC(=O)[C@H](C)/C=C(\C)[C@@H](O)[C@@H](OC)C(=O)[C@H](C)C[C@H](C)/C=C/C=C/C=C/1C [Rapamycin, rapamycin]	7.7	16.0	21.8	9.1	18.9	–
